Entries after “also recorded” stand apart in the source; their conditions may differ.
What was measured:
BaF3-TEL-EGFR-T790M = assay: Cell growth (Cell Titer-Glo viability), BaF3-TEL-EGFR-T790M; type: cell-based; details: Mus musculus; BaF3-TEL-EGFR-T790M (EGFR T790M mutant kinase), 72 hrs
How it was run: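 Luminescent ATP-based viability (CellTiter-Glo) measured viable cell number after compound exposure. Engineered lines were murine BaF3 made growth-factor independent by a TEL-kinase fusion and IL-3 removal. The human lung cancer lines harbor EGFR del19 (HCC827) or EGFR L858R (NCI-H3255).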

[1] = tested on: non-small cell lung cancer cell PC-9 subcutaneous tumors; assay: Mouse tumor model of non-small cell lung cancer cell PC-9; type: in vivo; details: PC-9 tumor model; for tumor inhibition rate: Bal b/c mice, after 8 days of administration
Procedure: 24 Bal b/c female mice, 4-6 weeks old, were purchased from Shanghai SLAC Laboratory Animal Co., Ltd., and maintained in an SPF laboratory. Drinking water and bedding were both sterilized by autoclaving. All operations involving the mice were performed under aseptic conditions. At day 0, 5×10^6 non-small cell lung cancer cells PC9 (purchased from ATCC) were injected subcutaneously into the left flank of all mice. At day 15, all mice were divided into four groups (6 mice per group), and the first group of mice were orally administered with methyl cellulose (HKI) solvent, the second group of mice were orally administered with Compound 1 at a dose of 25 mg/kg mouse weight, the third group of mice were orally administered with Compound 1 at a dose of 50 mg/kg mouse weight, and the fourth group of mice were orally administered with Compound 1 at a dose of 100 mg/kg mouse weight daily. Starting from the administration, the length/width of the subcutaneous tumor was measured daily with a vernier caliper, and the weight of the mice was recorded daily to observe the effect of Compound 1 on the body weight of the mice. The mice were sacrificed at day 36 and the subcutaneous tumors were collected. The tumors were weighed, and then the tumor tissues were used to prepare protein lysates for use. The growth trend of the subcutaneous tumor within 16-36 days was plotted, wherein the tumor volume was calculated as length×width×width/2 mm^3.

BaF3-TEL-EGFR-L858R = assay: Cell growth (Cell Titer-Glo viability), BaF3-TEL-EGFR-L858R; type: cell-based; details: Mus musculus; BaF3-TEL-EGFR-L858R (EGFR L858R mutant kinase), 72 hrs
Procedure: By testing the effect of the novel kinase inhibitors on the proliferation of cancer cells, the selectivity of the compounds of the present disclosure in inhibiting the proliferation of cancer cells was further assessed. […]
The number of viable cells was determined quantitatively by a microplate reader using Cell Titer-Glo® (Promega, US) chemiluminescence cell viability assay kit.

H3255 = assay: Effect on cell apoptosis (Western Blot, PARP and Caspase 3 cleavage), H3255; type: cell-based; details: H3255 (EGFR L858R), 24 hours
Source text: In order to confirm whether the death of cells is through apoptosis or necrosis after administration of drugs, non-small cell lung cancer cell A549 (expressing wild-type EGFR gene), non-small cell lung cancer cell line H1975 (expressing EGFR L858R/T790M double mutant gene), non-small cell lung cancer cell line H3255 (expressing EGFR L858R mutant gene), non-small cell lung cancer cell line H3122 (expressing ALK gene) cell line, and non-small cell lung cancer cell line PC-9 (expressing EGFR delE746_A750 mutant gene) were tested for effect of Compound 1 on cleavage of poly ADP-ribose polymerase PARP which is a DNA repair enzyme and Caspase 3, which were closely related to cell apoptosis. […] Western Blot was used to detect the effect of various concentrations of drugs at various time points on cleavage of poly ADP-ribose polymerase PARP which is a DNA repair enzyme and Caspase 3.

GI50 (BaF3-TEL-EGFR-T790M): 32 nM
GI50 (BaF3-TEL-EGFR-L858R): < 3 nM
Compound: C=CC(=O)Nc1cc(Nc2ncc(Cl)c(Nc3ccccc3S(=O)(=O)C(C)C)n2)c(OC)cc1N1CCN(CC)CC1 [Compound 1, N-(5-(5-chloro-4-(2-(isopropylsulfonyl)phenylamino)pyrimidin-2-ylamino)-2-(4-ethylpiperazin-1-yl)-4-methoxyphenyl)acrylamide]
tumor inhibition rate ([1]; oral daily 25 mg/kg): 89.8%
tumor inhibition rate ([1]; oral daily 50 mg/kg): 95.1%
tumor inhibition rate ([1]; oral daily 100 mg/kg): 98.7%
body weight of the mice ([1]; oral daily 25 mg/kg, 25 mg/kg): barely affect the body weight; also recorded: did not decrease
body weight of the mice ([1]; oral daily 50 mg/kg): did not decrease
concentration at which evident cleavage of PARP and Caspase 3 could be observed (H3255): 0.03 µM

Source: patent publication US10350210B2, “EGFR and ALK dual inhibitor” (PRECEDO PHARMACEUTICALS CO., LTD, priority 2015, dated 2019)
